ChEMBL document CHEMBL1151820, “Antagonists of the P2X(7) receptor. From lead identification to drug development” (J Med Chem, 2009)
One block for each molecule: values may come before it.

Experiments:
[1] = biological target: T1, P2X purinoceptor 7 (Homo sapiens) (UniProt Q99572); test: Inhibition of human P2X7 receptor in human PBMC assessed as inhibition of BzATP-induced IL1-beta release at 0.03 uM
T1 sequence (whole entry): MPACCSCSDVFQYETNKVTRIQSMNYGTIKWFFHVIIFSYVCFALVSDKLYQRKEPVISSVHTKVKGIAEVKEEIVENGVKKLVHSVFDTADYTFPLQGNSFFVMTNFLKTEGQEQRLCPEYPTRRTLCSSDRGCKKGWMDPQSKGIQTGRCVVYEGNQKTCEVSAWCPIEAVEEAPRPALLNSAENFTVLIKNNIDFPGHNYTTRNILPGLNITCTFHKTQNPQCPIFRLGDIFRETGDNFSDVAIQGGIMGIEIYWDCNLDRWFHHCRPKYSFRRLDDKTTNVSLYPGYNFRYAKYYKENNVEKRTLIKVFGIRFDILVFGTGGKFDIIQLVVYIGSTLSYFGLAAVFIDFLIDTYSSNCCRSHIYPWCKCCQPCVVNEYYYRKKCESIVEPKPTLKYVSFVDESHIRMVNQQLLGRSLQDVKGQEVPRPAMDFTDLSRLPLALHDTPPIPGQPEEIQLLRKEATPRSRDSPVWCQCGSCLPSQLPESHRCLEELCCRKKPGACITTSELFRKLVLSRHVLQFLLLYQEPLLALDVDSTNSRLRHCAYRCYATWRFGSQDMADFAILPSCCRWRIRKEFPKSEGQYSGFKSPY

[2] = Half life in rat; assay type: ADME, organism-based; details: in vivo
[3] = Bioavailability in rat; assay type: ADME, organism-based; details: in vivo
[4] = Volume of distribution at steady state in rat; assay type: ADME, organism-based; details: in vivo, read-out: Vdss
Mus musculus = test: In vivo receptor activity at P2X7 receptor in mouse model assessed as ATP-induced IL1-beta release; assay type: functional
P2X purinoceptor 7 [5] = biological target: T2, P2X purinoceptor 7 (Homo sapiens, UniProt Q99572); test: Antagonist activity at P2X7 receptor in human THP1 cells assessed as inhibition of BzATP-induced ethidium uptake; assay type: functional, cell-based, THP-1
T2 sequence (Q99572 whole entry): T1 sequence (whole entry)

[6] = Plasma clearance in rat; assay type: ADME, organism-based
[7] = biological target: T1, P2X purinoceptor 7 (Homo sapiens); test: Inhibition of human P2X7 receptor in human PBMC assessed as inhibition of BzATP-induced IL1-beta release at 0.3 uM
[8] = Oral bioavailability in rat; assay type: ADME, organism-based; details: in vivo
[9] = Metabolic stability in human liver microsomes assessed as half life; assay type: ADME, Microsome
P2X purinoceptor 7 [10] = biological target: T2, P2X purinoceptor 7; test: Antagonist activity at P2X7 receptor in human THP1 cells assessed as effect on BzATP-induced Yo-Pro uptake; assay type: functional, cell-based, THP-1
P2X purinoceptor 7 [11] = biological target: T2, P2X purinoceptor 7; test: Antagonist activity at human P2X7 receptor expressed in HEK293 cells assessed as inhibition of BzATP-induced calcium influx; assay type: functional, cell-based
[12] = Plasma clearance in iv dosed rat; assay type: ADME, organism-based
[13] = Volume of distribution at steady state in iv dosed rat; assay type: ADME, organism-based; details: in vivo, read-out: Vdss
[14] = Half life in iv dosed rat; assay type: ADME, organism-based; details: in vivo
P2X purinoceptor 7 [15] = biological target: T3, P2X purinoceptor 7 (Rattus norvegicus, UniProt Q64663); test: Activity at rat P2X7 receptor expressed in HEK cells assessed as effect on BzATP-induced ethidium uptake; assay type: cell-based, HEK293
T3 sequence (Q64663 whole entry): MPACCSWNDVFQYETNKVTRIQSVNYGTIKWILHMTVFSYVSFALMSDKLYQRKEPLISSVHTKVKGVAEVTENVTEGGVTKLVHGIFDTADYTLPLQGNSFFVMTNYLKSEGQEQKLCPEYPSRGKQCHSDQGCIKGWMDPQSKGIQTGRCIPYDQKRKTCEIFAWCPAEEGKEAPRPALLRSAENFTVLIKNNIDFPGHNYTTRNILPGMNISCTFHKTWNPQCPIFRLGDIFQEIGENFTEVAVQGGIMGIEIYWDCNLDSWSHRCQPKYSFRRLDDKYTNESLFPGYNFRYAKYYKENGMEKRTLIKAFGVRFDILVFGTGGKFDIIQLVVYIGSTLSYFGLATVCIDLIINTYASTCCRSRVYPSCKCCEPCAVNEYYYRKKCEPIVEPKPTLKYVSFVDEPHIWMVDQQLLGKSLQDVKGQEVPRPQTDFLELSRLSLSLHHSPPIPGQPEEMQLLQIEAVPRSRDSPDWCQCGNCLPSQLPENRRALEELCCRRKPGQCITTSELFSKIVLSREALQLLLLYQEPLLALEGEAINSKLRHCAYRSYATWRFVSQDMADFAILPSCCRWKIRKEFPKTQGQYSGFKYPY

P2X purinoceptor 7 [16] = biological target: T2, P2X purinoceptor 7; test: Antagonist activity at human P2X7 receptor expressed in human U373 cells assessed as inhibition of BzATP-induced Yo-Pro uptake; assay type: functional, cell-based, U-373MG ATCC
Rattus norvegicus [17] = test: Antiinflammatory activity in po dosed rat acute inflammatory pain model assessed as inhibition of FCA-induced weight bearing capacity; assay type: functional
Rattus norvegicus [18] = test: Analgesic activity in po dosed rat model of joint pain assessed as inhibition of FCA-induced weight bearing capacity administered twice daily for 5 days; assay type: functional; details: 120 h
[19] = biological target: T1, P2X purinoceptor 7 (Homo sapiens); details: HEK293, at 3 µM
P2X purinoceptor 7 [20] = biological target: T2, P2X purinoceptor 7; test: Antagonist activity at P2X7 receptor in human lymphocytes assessed as inhibition of ATP-induced Ba2+ influx; assay type: functional, cell-based
[21] = Metabolic stability in rat hepatocytes assessed as intrinsic clearance assessed per million cells; assay type: ADME, cell-based, Liver, Hepatocyte
[22] = Half life in ip dosed rat; assay type: ADME, organism-based; details: in vivo

- inhibition [1]: 50%
SMILES: O=C(NCC12CC3CC(CC(C3)C1)C2)c1ncnc2c1CCN(Cc1ccccc1)C2

- half-life [2]: 3 h
- bioavailability [3]: 44%
- Vd [4]: 0.3 L/kg
- IC50 (P2X purinoceptor 7 [5]): 316 nM
- clearance [6]: 9 mL/min/kg
SMILES: O=C(NCCc1ccccc1Cl)c1cc(-n2ncc(=O)[nH]c2=O)ccc1Cl
- ED50 (Mus musculus): 20 mg/kg

- inhibition [7]: > 75%
SMILES: CC(C)(C)OC(=O)NCC(=O)N1CCc2c(ncnc2NCC(O)C23CC4CC(CC(C4)C2)C3)C1 (centres undefined)

- bioavailability [8]: 25%
- half-life [9]: 1.5 h
SMILES: Cc1ccc2c(=O)n([C@H](C)CO)ccc2c1NC(=O)Cc1ccc(C(F)(F)F)c(F)c1

- IC50 (P2X purinoceptor 7 [10]): 10 nM
SMILES: Cc1ccc(-c2ccc(Cl)c(C(=O)NCC3(O)CCCC(C)(C)C3)c2)nc1 (centres undefined)

- IC50 (P2X purinoceptor 7 [11]): 631 nM
SMILES: CN([C@@H](Cc1ccc(OS(=O)(=O)c2cccc3cnccc23)cc1)C(=O)N1CCN(CCc2ccccc2)CC1)S(=O)(=O)c1cccc2cnccc12

- IC50 (P2X purinoceptor 7 [11]): 100 nM
SMILES: CN([C@@H](Cc1ccc(OS(=O)(=O)c2cccc3cnccc23)cc1)C(=O)N1CCN(c2ccc(Cl)cc2)CC1)S(=O)(=O)c1cccc2cnccc12

- bioavailability [8]: 5%
- clearance [12]: 23 mL/min/kg
- Vd [13]: 11.8 L/kg
- half-life [14]: 4.4 h
SMILES: Cc1ccc2c(N/C(=N\C#N)N3CCN(C(=O)c4ccc(Cl)cc4)CC3C(C)C)cccc2n1 (centres undefined)

- IC50 (P2X purinoceptor 7 [15]): 39.8 nM
- IC50 (P2X purinoceptor 7 [5]): 10 nM
SMILES: O=C(NNc1cccc2ncccc12)C12CC3CC(CC(C3)C1)C2

- IC50 (P2X purinoceptor 7 [11]): 31.6 nM
SMILES: O=C(CNS(=O)(=O)c1cccc2cnccc12)N1CCN(Cc2ccccc2)CC1

- IC50 (P2X purinoceptor 7 [16]): 200 nM
SMILES: Fc1cccc(CSC2=N[C@@H](c3ccccc3)[C@@H](c3ccccc3)N2)c1

SMILES: CN1C(=O)CCC1C(=O)NCc1cccc(C(F)(F)F)c1Cl (centres undefined)
- ED50 (Rattus norvegicus [17]): < 20 mg/kg
- ED50 (Rattus norvegicus [18]): < 20 mg/kg

- IC50 (P2X purinoceptor 7 [16]): > 1000 nM
SMILES: Clc1ccc(CCC2=N[C@H](c3ccccc3)[C@H](c3ccccc3)N2)cc1

- IC50 (P2X purinoceptor 7 [16]): 10 nM
SMILES: CC(C)(CC1=N[C@H](c2ccccc2)[C@H](c2ccccc2)N1)c1ccccc1

- IC50 (P2X purinoceptor 7 [11]): 6.31 nM
SMILES: O=C([C@H](Cc1ccc(OS(=O)(=O)c2cccc3cnccc23)cc1)NS(=O)(=O)c1cccc2cnccc12)N1CCN(c2ccc(F)cc2)CC1

- IC50 (P2X purinoceptor 7 [11]): 20 nM
SMILES: O=C(CNS(=O)(=O)c1cccc2cnccc12)N1CCN(c2ccc([N+](=O)[O-])cc2)CC1

- IC50 (P2X purinoceptor 7 [15]): 12.6 nM
- IC50 (P2X purinoceptor 7 [5]): 15.8 nM
SMILES: Clc1cccc(-n2cnnc2NCc2cccnc2N2CCCC2)c1Cl

- IC50 (P2X purinoceptor 7 [16]): 200 nM
SMILES: Fc1cccc(COC2=N[C@H](c3ccccc3)[C@H](c3ccccc3)N2)c1

- IC50 (P2X purinoceptor 7 [16]): > 3160 nM
SMILES: COc1ccc(CCC2=N[C@H](c3ccccc3)[C@H](c3ccccc3)N2)cc1

- inhibition [19]: 85%
- IC50 (P2X purinoceptor 7 [20]): 12.6 nM
- IC50 (P2X purinoceptor 7 [11]): 50.1 nM
SMILES: CN([C@@H](Cc1ccc(OS(=O)(=O)c2cccc3cnccc23)cc1)C(=O)N1CCN(c2ccccc2)CC1)S(=O)(=O)c1cccc2cnccc12

- half-life [2]: 0.5 h
- hepatocyte CLint [21]: > 100 µL/min/1e6 cells
- Vd [4]: 3 L/kg
- clearance [6]: 100 mL/min/kg
SMILES: O=C(NCC12CC3CC(CC(C3)C1)C2)c1cc(Cl)ccc1Cl

- IC50 (P2X purinoceptor 7 [16]): 39.8 nM
SMILES: C[C@@]1(c2cccc(F)c2)N=C(NCc2cccc(F)c2)N[C@@H]1c1cccc(F)c1

- IC50 (P2X purinoceptor 7 [11]): 12.6 nM
SMILES: O=C(CNS(=O)(=O)c1cccc2cnccc12)N1CCN(c2ccccc2F)CC1

- clearance [12]: 68 mL/min/kg
- Vd [13]: 5.3 L/kg
- half-life [14]: 0.9 h
SMILES: Cc1ccccc1N=C(NC#N)N1CCN(C(=O)Nc2ccc(Cl)cc2)C(c2ccccc2)C1 (centres undefined)

- half-life [22]: 1 h
SMILES: Clc1cccc(-c2nnnn2Cc2cccnc2)c1Cl
